# Data reported in patent US10201523B2, “Use of wilforlide A for overcoming chemotherapy resistance” (WESTERN UNIVERSITY OF HEALTH SCIENCES, priority 2013, dated 2019).
# Several values for one entry are separate records, joined by “and”; a condition that tells them apart may be missing. Equal entries are not always repeated. Where two headings read alike, the source gives them in different places.
# Key:
# K562 = experiment: SRB cell viability assay, daunorubicin IC50; format: cell-based; conditions: Homo sapiens, 72 h, read-out: Drug IC50 no pre-Tx
# K562/Dox = experiment: SRB cell viability assay, daunorubicin with/without wilforlide A pretreatment; format: cell-based; conditions: for viability at 0.001 µM / viability at 0.1 µM / viability at 0.333 µM / viability at 1 µM / viability at 3.33 µM / viability at 10 µM / viability at 33.3 µM / viability at 100 µM / IC50: Homo sapiens; for A at 565 nm: background = 0.043
# Source text: Wilforlide A sensitizes the daunorubicin-resistant myelogenous leukemia line K562/Dox, to daunorubicin. […] FIG. 5 summarizes the data of Tables 20 and 21 in a graphical format.
# [1] = K562/Dox, no wilforlide A pre-Tx, daunorubicin 0.001 μM 72 h
# [2] = K562/Dox, no wilforlide A pre-Tx, daunorubicin 0.333 μM 72 h
# [3] = K562/Dox, no wilforlide A pre-Tx, daunorubicin 1 μM 72 h
# [4] = K562/Dox, no wilforlide A pre-Tx, daunorubicin 3.33 μM 72 h
# [5] = K562/Dox, no wilforlide A pre-Tx, daunorubicin 10 μM 72 h
# [6] = K562/Dox, no wilforlide A pre-Tx, daunorubicin 33.3 μM 72 h
# [7] = K562/Dox, no wilforlide A pre-Tx, daunorubicin 100 μM 72 h
# [8] = K562/Dox, wilforlide A 2.5 μg/ml pre-Tx, daunorubicin 0.001 μM 72 h
# [9] = K562/Dox, wilforlide A 2.5 μg/ml pre-Tx, daunorubicin 0.333 μM 72 h
# [10] = K562/Dox, wilforlide A 2.5 μg/ml pre-Tx, daunorubicin 1 μM 72 h
# [11] = K562/Dox, wilforlide A 2.5 μg/ml pre-Tx, daunorubicin 3.33 μM 72 h
# [12] = K562/Dox, wilforlide A 2.5 μg/ml pre-Tx, daunorubicin 10 μM 72 h
# [13] = K562/Dox, wilforlide A 2.5 μg/ml pre-Tx, daunorubicin 33.3 μM 72 h
# [14] = K562/Dox, wilforlide A 2.5 μg/ml pre-Tx, daunorubicin 100 μM 72 h
structure (smiles),measurement,setting,value
COc1cccc2c1C(=O)c1c(O)c3c(c(O)c1C2=O)C[C@@](O)(C(C)=O)C[C@@H]3O[C@H]1C[C@H](N)[C@H](O)[C@H](C)O1 [daunorubicin],IC50,K562,1.05 µM
same,viability at 0.001 µM,"K562/Dox; K562, 72 h, K562/Dox, no wilforlide A pre-Tx, daunorubicin 0.001 μM 72 h",100%
same,viability at 0.1 µM,"K562/Dox; K562, 72 h, K562/Dox, no wilforlide A pre-Tx, daunorubicin 0.1 μM 72 h",58.1%
same,viability at 0.333 µM,"K562/Dox; K562, 72 h, K562/Dox, no wilforlide A pre-Tx, daunorubicin 0.333 μM 72 h",102%
same,viability at 1 µM,"K562/Dox; K562, 72 h, K562/Dox, no wilforlide A pre-Tx, daunorubicin 1 μM 72 h",99.6%
same,viability at 3.33 µM,"K562/Dox; K562, 72 h, K562/Dox, no wilforlide A pre-Tx, daunorubicin 3.33 μM 72 h",95.9%
same,viability at 10 µM,"K562/Dox; K562, 72 h, K562/Dox, no wilforlide A pre-Tx, daunorubicin 10 μM 72 h",92.3%
same,viability at 33.3 µM,"K562/Dox; K562, 72 h, K562/Dox, no wilforlide A pre-Tx, daunorubicin 33.3 μM 72 h",53.8%
same,viability at 100 µM,"K562/Dox; K562, 72 h, K562/Dox, no wilforlide A pre-Tx, daunorubicin 100 μM 72 h",22.4%
same,viability at 0.001 µM,"K562/Dox; K562, 72 h, K562/Dox, wilforlide A 2.5 μg/ml pre-Tx, daunorubicin 0.001 μM 72 h",100%
same,viability at 0.1 µM,"K562/Dox; K562, 72 h, K562/Dox, wilforlide A 2.5 μg/ml pre-Tx, daunorubicin 0.1 μM 72 h",54.1%
same,viability at 0.333 µM,"K562/Dox; K562, 72 h, K562/Dox, wilforlide A 2.5 μg/ml pre-Tx, daunorubicin 0.333 μM 72 h",104%
same,viability at 1 µM,"K562/Dox; K562, 72 h, K562/Dox, wilforlide A 2.5 μg/ml pre-Tx, daunorubicin 1 μM 72 h",99%
same,viability at 3.33 µM,"K562/Dox; K562, 72 h, K562/Dox, wilforlide A 2.5 μg/ml pre-Tx, daunorubicin 3.33 μM 72 h",95.4%
same,viability at 10 µM,"K562/Dox; K562, 72 h, K562/Dox, wilforlide A 2.5 μg/ml pre-Tx, daunorubicin 10 μM 72 h",78.6%
same,viability at 33.3 µM,"K562/Dox; K562, 72 h, K562/Dox, wilforlide A 2.5 μg/ml pre-Tx, daunorubicin 33.3 μM 72 h",33.7%
same,viability at 100 µM,"K562/Dox; K562, 72 h, K562/Dox, wilforlide A 2.5 μg/ml pre-Tx, daunorubicin 100 μM 72 h",29.6%
same,IC50,"K562/Dox; K562, 72 h, read-out: Drug IC50 no pre-Tx",30.7 µM
same,IC50,"K562/Dox; K562, read-out: Drug IC50 after wilforlide A pre-Tx",13.6 µM
same,mean A,K562/Dox; [1],2.893
same,A at 565 nm,K562/Dox; [1],2.848 and 2.923 and 2.909
same,mean A,"K562/Dox; K562/Dox, no wilforlide A pre-Tx, daunorubicin 0.1 μM 72 h",1.682
same,mean A,K562/Dox; [2],2.951
same,A at 565 nm,K562/Dox; [2],2.943 and 2.956 and 2.955
same,mean A,K562/Dox; [3],2.880
same,A at 565 nm,K562/Dox; [3],2.892 and 2.878 and 2.872
same,mean A,K562/Dox; [4],2.775
same,A at 565 nm,K562/Dox; [4],2.805 and 2.780 and 2.741
same,mean A,K562/Dox; [5],2.670
same,A at 565 nm,K562/Dox; [5],2.678 and 2.720 and 2.613
same,mean A,K562/Dox; [6],1.556
same,A at 565 nm,K562/Dox; [6],1.625 and 1.639 and 1.406
same,mean A,K562/Dox; [7],0.647
same,A at 565 nm,K562/Dox; [7],0.757 and 0.657 and 0.528
same,mean A,K562/Dox; [8],2.815
same,A at 565 nm,K562/Dox; [8],2.797 and 2.838 and 2.810
same,mean A,"K562/Dox; K562/Dox, wilforlide A 2.5 μg/ml pre-Tx, daunorubicin 0.1 μM 72 h",1.522
same,mean A,K562/Dox; [9],2.938
same,A at 565 nm,K562/Dox; [9],2.838 and 2.951 and 3.025
same,mean A,K562/Dox; [10],2.786
same,A at 565 nm,K562/Dox; [10],2.777 and 2.784 and 2.799
same,mean A,K562/Dox; [11],2.684
same,A at 565 nm,K562/Dox; [11],2.657 and 2.681 and 2.715
same,mean A,K562/Dox; [12],2.213
same,A at 565 nm,K562/Dox; [12],2.200 and 2.392 and 2.049
same,mean A,K562/Dox; [13],0.947
same,A at 565 nm,K562/Dox; [13],1.016 and 0.901 and 0.926
same,mean A,K562/Dox; [14],0.832
same,A at 565 nm,K562/Dox; [14],0.843 and 0.815 and 0.840
same,CE,"K562/Dox; chemosensitization effect, K562/Dox, wilforlide A 2.5 μg/ml pre-Tx",2.27
